For assay [1], the target named is T1, glucosylceramide synthase (GCS) (Homo sapiens, UniProt Q16739).
T1 construct: The obtained supernatant was used; host or cells: A549 cells (lysate supernatant after sonication)
T1 sequence (Q16739 1-394): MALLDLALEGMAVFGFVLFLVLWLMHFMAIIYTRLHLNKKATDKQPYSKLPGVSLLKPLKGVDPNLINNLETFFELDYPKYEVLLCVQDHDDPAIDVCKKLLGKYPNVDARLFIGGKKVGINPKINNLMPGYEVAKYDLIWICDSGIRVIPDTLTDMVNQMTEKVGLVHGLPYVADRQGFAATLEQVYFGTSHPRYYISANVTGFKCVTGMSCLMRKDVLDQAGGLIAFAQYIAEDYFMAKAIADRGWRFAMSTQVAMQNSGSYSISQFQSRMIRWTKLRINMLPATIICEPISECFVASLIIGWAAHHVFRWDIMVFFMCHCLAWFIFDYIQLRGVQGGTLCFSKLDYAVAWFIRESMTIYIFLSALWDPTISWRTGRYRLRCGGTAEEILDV
Nature of the assay: GCS enzyme inhibition assay (A549 cell lysate, NBD C6-ceramide, HPLC fluorescence). Format: biochemical. The settings on record: inhibitory activity against GCS, 37° C., 90 minutes. The procedure, abridged: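 Percent GCS activity was derived from the GlcCer share of Cer plus GlcCer areas, scaled from ibiglustat (0%) to DMSO (100%). Enzyme came from sonicated A549 lysate in 50 mM HEPES pH 7.3; 90 min incubation at 37° C, chloroform/methanol stop and extraction.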

Assay [2] concerns GM1 production in Jurkat cells. Nature of the assay: cells. Format: cell-based. The settings on record: Homo sapiens, Jurkat, 72 h.

Each structure is given as a SMILES string. pIC50: −log10 of the molar value.

The text below walks through data of patent US12673944B2, “Compounds having inhibitory activity against glucosylceramide synthase or pharmaceutically acceptable salt thereof, processes for preparing the same, and pharmaceutical compositions comprising the same” (YUHAN CORPORATION, priority 2019, dated 2026).

For orientation: pIC50 means −log10 of the IC50, conventionally taken in molar units.

`CC1(C)COc2cc(-c3cccc(C(F)F)c3)ccc2C1NC(=O)O[C@@H]1CN2CCC1CC2` (stereo partly drawn) [Example 112, (S)-quinuclidin-3-yl (7-(3-(difluoromethyl)phenyl)-3,3-dimethylchroman-4-yl)carbamate]: the pIC50 in assay [1] is 9.28; in assay [2] it was 9.26.
For `Cc1ccc(-c2ccc3c(c2)OCC(C)(C)C3NC(=O)O[C@@H]2CN3CCC2CC3)c2cccnc12` (stereo partly drawn) [Example 113, (S)-quinuclidin-3-yl (3,3-dimethyl-7-(8-methylquinolin-5-yl)chroman-4-yl)carbamate], the results for the negative-log IC50 (pIC50) in assay [1] and in assay [2] were 8.53 and 7.89, respectively.
The matching figures for `COc1cc(OC)cc(-c2ccc3c(c2)OCC(C)(C)C3NC(=O)O[C@@H]2CN3CCC2CC3)c1` (stereo partly drawn) [Example 114, (S)-quinuclidin-3-yl (7-(3,5-dimethoxyphenyl)-3,3-dimethylchroman-4-yl)carbamate]: 9.12 and 8.55.
For `COc1ccc(-c2ccc3c(c2)OCC(C)(C)C3NC(=O)O[C@@H]2CN3CCC2CC3)cc1C` (stereo partly drawn) [Example 115, (S)-quinuclidin-3-yl (7-(4-methoxy-3-methylphenyl)-3,3-dimethylchroman-4-yl)carbamate], the values for the pIC50 in assay [1] and in assay [2] were 8.73 and 8.43, respectively.
The matching figures for `COc1ccc(-c2ccc3c(c2)OCC(C)(C)C3NC(=O)O[C@@H]2CN3CCC2CC3)c(C)c1` (stereo partly drawn) [Example 116, (S)-quinuclidin-3-yl (7-(4-methoxy-2-methylphenyl)-3,3-dimethylchroman-4-yl)carbamate]: 8.86 and 8.94.
The like results for `COc1ccc(-c2ccc3c(c2)OCC(C)(C)C3NC(=O)O[C@@H]2CN3CCC2CC3)cc1Cl` (stereo partly drawn) [Example 117, (S)-quinuclidin-3-yl (7-(3-chloro-4-methoxyphenyl)-3,3-dimethylchroman-4-yl)carbamate] were, in that order, 8.78 and 8.35.
The like results for `COc1ccc(-c2ccc3c(c2)OCC(C)(C)C3NC(=O)O[C@@H]2CN3CCC2CC3)cc1F` (stereo partly drawn) [Example 118, (S)-quinuclidin-3-yl (7-(3-fluoro-4-methoxyphenyl)-3,3-dimethylchroman-4-yl)carbamate] were, in that order, 8.79 and 8.44.
For the molecule `COc1ccc(-c2ccc3c(c2)OCC(C)(C)C3NC(=O)O[C@@H]2CN3CCC2CC3)c(Cl)c1` (stereo partly drawn) [Example 119, (S)-quinuclidin-3-yl (7-(2-chloro-4-methoxyphenyl)-3,3-dimethylchroman-4-yl)carbamate], the negative-log IC50 (pIC50) in assay [1] was 9.19; in assay [2], 8.90.
For `COc1cc(F)ccc1-c1ccc2c(c1)OCC(C)(C)C2NC(=O)O[C@@H]1CN2CCC1CC2` (stereo partly drawn) [Example 120, (S)-quinuclidin-3-yl (7-(4-fluoro-2-methoxyphenyl)-3,3-dimethylchroman-4-yl)carbamate], the pIC50 in assay [1] is 9.15; in assay [2] it was 8.19.
The like results for `COc1cccc(Cl)c1-c1ccc2c(c1)OCC(C)(C)C2NC(=O)O[C@@H]1CN2CCC1CC2` (stereo partly drawn) [Example 121, (S)-quinuclidin-3-yl (7-(2-chloro-6-methoxyphenyl)-3,3-dimethylchroman-4-yl)carbamate] were, in that order, 8.57 and 7.80.
The matching figures for `COc1cccc(F)c1-c1ccc2c(c1)OCC(C)(C)C2NC(=O)O[C@@H]1CN2CCC1CC2` (stereo partly drawn) [Example 122, (S)-quinuclidin-3-yl (7-(2-fluoro-6-methoxyphenyl)-3,3-dimethylchroman-4-yl)carbamate]: 9.02 and 8.43.
As to `COc1cc(F)c(-c2ccc3c(c2)OCC(C)(C)C3NC(=O)O[C@@H]2CN3CCC2CC3)cc1F` (stereo partly drawn) [Example 123, (S)-quinuclidin-3-yl (7-(2,5-difluoro-4-methoxyphenyl)-3,3-dimethylchroman-4-yl)carbamate], the pIC50 in assay [1] was 9.10; in assay [2] it was 8.37.
As for `CCOc1ccc(-c2ccc3c(c2)OCC(C)(C)C3NC(=O)O[C@@H]2CN3CCC2CC3)cc1F` (stereo partly drawn) [Example 124, (S)-quinuclidin-3-yl (7-(4-ethoxy-3-fluorophenyl)-3,3-dimethylchroman-4-yl)carbamate], the pIC50 was 9.12 in assay [1] and 8.35 in assay [2].
The like results for `COc1ccc(-c2ccc3c(c2)OCC(C)(C)C3NC(=O)O[C@@H]2CN3CCC2CC3)c(OC)c1` (stereo partly drawn) [Example 125, (S)-quinuclidin-3-yl (7-(2,4-dimethoxyphenyl)-3,3-dimethylchroman-4-yl)carbamate] were, in that order, 9.07 and 8.41.
With `COc1ccc(OC)c(-c2ccc3c(c2)OCC(C)(C)C3NC(=O)O[C@@H]2CN3CCC2CC3)c1` (stereo partly drawn) [Example 126, (S)-quinuclidin-3-yl (7-(2,5-dimethoxyphenyl)-3,3-dimethylchroman-4-yl)carbamate], the pIC50 in assay [1] was 9.24; in assay [2], 9.07.
The matching figures for `COc1cccc(-c2ccc3c(c2)OCC(C)(C)C3NC(=O)O[C@@H]2CN3CCC2CC3)c1OC` (stereo partly drawn) [Example 127, (S)-quinuclidin-3-yl (7-(2,3-dimethoxyphenyl)-3,3-dimethylchroman-4-yl)carbamate]: 8.68 and 7.85.
For `COc1ccc(-c2ccc3c(c2)OCC(C)(C)C3NC(=O)O[C@@H]2CN3CCC2CC3)cc1OC` (stereo partly drawn) [Example 128, (S)-quinuclidin-3-yl (7-(3,4-dimethoxyphenyl)-3,3-dimethylchroman-4-yl)carbamate], the negative logarithm of the IC50 (pIC50) in assay [1] was 8.55; in assay [2], 7.64.
`COc1ccc(-c2ccc3c(c2)OCC(C)(C)C3NC(=O)O[C@@H]2CN3CCC2CC3)c(OC)n1` (stereo partly drawn) [Example 129, (S)-quinuclidin-3-yl (7-(2,6-dimethoxypyridin-3-yl)-3,3-dimethylchroman-4-yl)carbamate]: the pIC50 is 8.94 in assay [1] and 8.34 in assay [2].
The like results for `CC1(C)COc2cc(-c3ccc4ccccc4c3)ccc2C1NC(=O)O[C@@H]1CN2CCC1CC2` (stereo partly drawn) [Example 130, (S)-quinuclidin-3-yl (3,3-dimethyl-7-(naphthalen-2-yl)chroman-4-yl)carbamate] were, in that order, 9.15 and 8.85.
On to `CC1(C)COc2cc(-c3cccc4ccccc34)ccc2C1NC(=O)O[C@@H]1CN2CCC1CC2` (stereo partly drawn) [Example 131, (S)-quinuclidin-3-yl (3,3-dimethyl-7-(naphthalen-1-yl)chroman-4-yl)carbamate], for which the negative logarithm of the IC50 (pIC50) in assay [1] was 8.99; in assay [2] it was 8.92.
On to `CC1(C)COc2cc(-c3ccc4ncccc4c3)ccc2C1NC(=O)O[C@@H]1CN2CCC1CC2` (stereo partly drawn) [Example 132, (S)-quinuclidin-3-yl (3,3-dimethyl-7-(quinolin-6-yl)chroman-4-yl)carbamate], for which the pIC50 is 8.81 in assay [1] and 8.05 in assay [2].
Turning to `CCOc1c(C)cc(-c2ccc3c(c2)OCC(C)(C)C3NC(=O)O[C@@H]2CN3CCC2CC3)cc1C` (stereo partly drawn) [Example 133, (S)-quinuclidin-3-yl (7-(4-ethoxy-3,5-dimethylphenyl)-3,3-dimethylchroman-4-yl)carbamate], the figures for the negative logarithm of the IC50 (pIC50) in assay [1] and in assay [2] were 8.87 and 10.00, respectively.
The like results for `CCOc1cc(-c2ccc3c(c2)OCC(C)(C)C3NC(=O)O[C@@H]2CN3CCC2CC3)c(Cl)cc1Cl` (stereo partly drawn) [Example 134, (S)-quinuclidin-3-yl (7-(2,4-dichloro-5-ethoxyphenyl)-3,3-dimethylchroman-4-yl)carbamate] were, in that order, 8.55 and 7.90.
The matching figures for `CC(C)Oc1ccc(F)c(-c2ccc3c(c2)OCC(C)(C)C3NC(=O)O[C@@H]2CN3CCC2CC3)c1` (stereo partly drawn) [Example 135, (S)-quinuclidin-3-yl (7-(2-fluoro-5-isopropoxyphenyl)-3,3-dimethylchroman-4-yl)carbamate]: 9.36 and 8.46.
The matching figures for `CC(C)Oc1cc(F)cc(-c2ccc3c(c2)OCC(C)(C)C3NC(=O)O[C@@H]2CN3CCC2CC3)c1` (stereo partly drawn) [Example 136, (S)-quinuclidin-3-yl (7-(3-fluoro-5-isopropoxyphenyl)-3,3-dimethylchroman-4-yl)carbamate]: 9.21 and 8.56.
Regarding `CC1(C)COc2cc(-c3ccc(C(F)(F)F)cc3Cl)ccc2C1NC(=O)O[C@@H]1CN2CCC1CC2` (stereo partly drawn) [Example 137, (S)-quinuclidin-3-yl (7-(2-chloro-4-(trifluoromethyl)phenyl)-3,3-dimethylchroman-4-yl)carbamate], the pIC50 was 9.21 in assay [1] and 9.96 in assay [2].
The like results for `CC1(C)COc2cc(-c3cccc(C(F)(F)F)c3Cl)ccc2C1NC(=O)O[C@@H]1CN2CCC1CC2` (stereo partly drawn) [Example 138, (S)-quinuclidin-3-yl (7-(2-chloro-3-(trifluoromethyl)phenyl)-3,3-dimethylchroman-4-yl)carbamate] were, in that order, 9.20 and 8.80.
The like results for `CC1(C)COc2cc(-c3cc(C(F)(F)F)ccc3Cl)ccc2C1NC(=O)O[C@@H]1CN2CCC1CC2` (stereo partly drawn) [Example 139, (S)-quinuclidin-3-yl (7-(2-chloro-5-(trifluoromethyl)phenyl)-3,3-dimethylchroman-4-yl)carbamate] were, in that order, 9.21 and 9.52.
For the molecule `CCCOc1c(C)cc(-c2ccc3c(c2)OCC(C)(C)C3NC(=O)O[C@@H]2CN3CCC2CC3)cc1C` (stereo partly drawn) [Example 140, (S)-quinuclidin-3-yl (7-(3,5-dimethyl-4-propoxyphenyl)-3,3-dimethylchroman-4-yl)carbamate], the pIC50 was 9.06 in assay [1] and 9.82 in assay [2].
